Experiment [1] deals with PI3K-δ (PI3K(p1108/p857) (h)) (Homo sapiens, UniProt O00329). Nature of the experiment: Evaluation of inhibitory activity against PI3K-δ (HTRF kinase assay). Conditions: for inhibition at 0.01 µM: compound concentration 0.01 μM, read-out: EXP_VALUE(% Inhibition) PI3K-δ 0.01 μM; for inhibition at 0.1 µM: compound concentration 0.1 μM, read-out: EXP_VALUE(% Inhibition) PI3K-δ 0.1 μM. It is filed as biochemical. In short, it runs like this: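 HTRF read-out (665/620 nm ratio ×10000) used Eu-labelled anti-GST, GST-tagged GRP1 PH domain and streptavidin-allophycocyanin after EDTA/PIP3 stop.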

The target in another experiment is DNA-PK(h) (Homo sapiens, UniProt P78527). The experiment can be described thus: Evaluation of inhibitory activity against DNA-PK (HTRF kinase assay, GST-cMyc-p53 substrate). It is filed as biochemical. Conditions: for inhibition at 0.01 µM: compound concentration 0.01 μM, read-out: EXP_VALUE(% Inhibition) DNA-PK(h) 0.01 μM; for inhibition at 0.1 µM: compound concentration 0.1 μM, read-out: EXP_VALUE(% Inhibition) DNA-PK(h) 0.1 μM. The essentials:
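p53 Ser15 phosphorylation by human DNA-PK was measured by time-resolved FRET ratio (665/620 nm ×10000) using Eu-labelled anti-phospho-Ser15 and d2 anti-GST antibodies. Substrate GST-cMyc-p53 at 50 μM; Mg/ATP-initiated, 30 min at room temperature, EDTA stop.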
In general terms: In TR-FRET formats the signal depends on donor and acceptor labels being close together.

For orientation: inhibition means the drop in the measured response relative to a control, in per cent.

Each structure is given as a SMILES string.

Sequence of PI3K-δ (PI3K(p1108/p857) (h)) (O00329 whole entry, the tested form may be a part): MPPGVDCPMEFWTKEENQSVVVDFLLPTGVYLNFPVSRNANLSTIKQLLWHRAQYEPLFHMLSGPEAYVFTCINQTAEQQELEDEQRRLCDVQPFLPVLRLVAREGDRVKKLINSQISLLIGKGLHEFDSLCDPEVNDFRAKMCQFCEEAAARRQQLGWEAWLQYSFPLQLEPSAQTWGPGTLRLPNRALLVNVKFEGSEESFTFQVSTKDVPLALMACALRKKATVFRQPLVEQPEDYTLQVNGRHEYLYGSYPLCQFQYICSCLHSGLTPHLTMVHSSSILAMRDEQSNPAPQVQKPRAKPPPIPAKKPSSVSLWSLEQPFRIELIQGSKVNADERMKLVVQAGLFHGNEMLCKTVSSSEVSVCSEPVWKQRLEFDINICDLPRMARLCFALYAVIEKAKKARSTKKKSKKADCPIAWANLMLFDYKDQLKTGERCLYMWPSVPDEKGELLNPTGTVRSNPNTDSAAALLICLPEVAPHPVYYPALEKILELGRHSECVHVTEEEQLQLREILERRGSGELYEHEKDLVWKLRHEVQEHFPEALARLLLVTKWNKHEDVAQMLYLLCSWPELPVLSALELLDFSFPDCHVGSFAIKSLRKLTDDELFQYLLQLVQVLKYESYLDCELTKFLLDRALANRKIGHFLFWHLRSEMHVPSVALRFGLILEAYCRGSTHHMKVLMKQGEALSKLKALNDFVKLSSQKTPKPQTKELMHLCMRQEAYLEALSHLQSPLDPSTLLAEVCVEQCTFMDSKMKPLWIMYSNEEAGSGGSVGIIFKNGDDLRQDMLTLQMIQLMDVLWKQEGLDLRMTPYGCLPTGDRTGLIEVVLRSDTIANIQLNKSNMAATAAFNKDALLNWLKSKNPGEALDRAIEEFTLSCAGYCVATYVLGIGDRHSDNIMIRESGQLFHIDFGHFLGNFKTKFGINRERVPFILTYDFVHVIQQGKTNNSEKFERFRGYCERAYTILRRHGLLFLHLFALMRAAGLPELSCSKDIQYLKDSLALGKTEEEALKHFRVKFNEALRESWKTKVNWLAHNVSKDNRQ
Sequence of PI3K-δ (PI3K(p1108/p857) (h)) (P27986 whole entry partner, the tested form may be a part): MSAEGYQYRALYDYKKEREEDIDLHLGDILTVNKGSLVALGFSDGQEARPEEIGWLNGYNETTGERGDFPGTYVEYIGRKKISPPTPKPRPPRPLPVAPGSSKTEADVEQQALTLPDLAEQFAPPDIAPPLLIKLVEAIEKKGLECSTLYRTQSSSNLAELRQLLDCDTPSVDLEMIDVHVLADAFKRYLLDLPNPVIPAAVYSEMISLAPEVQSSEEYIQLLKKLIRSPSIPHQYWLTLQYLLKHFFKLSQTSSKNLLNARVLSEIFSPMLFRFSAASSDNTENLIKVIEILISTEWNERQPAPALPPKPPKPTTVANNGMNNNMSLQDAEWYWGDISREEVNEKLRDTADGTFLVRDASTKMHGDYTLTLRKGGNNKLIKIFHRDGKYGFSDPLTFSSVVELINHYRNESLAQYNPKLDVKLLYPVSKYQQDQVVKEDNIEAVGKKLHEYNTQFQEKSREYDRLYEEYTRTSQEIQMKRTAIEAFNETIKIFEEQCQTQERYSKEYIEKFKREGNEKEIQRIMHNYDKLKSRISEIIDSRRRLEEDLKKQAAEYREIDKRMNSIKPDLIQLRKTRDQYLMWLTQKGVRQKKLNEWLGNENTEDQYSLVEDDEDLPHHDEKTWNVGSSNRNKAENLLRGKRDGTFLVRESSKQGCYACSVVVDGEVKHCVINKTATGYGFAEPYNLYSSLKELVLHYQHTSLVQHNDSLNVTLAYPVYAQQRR

`Cc1cncc(-c2cccc3c(Cl)c([C@H](C)Nc4ncnc5[nH]ccc(=O)c45)n(-c4ccccc4)c(=O)c23)c1` [Example 119, (S)-4-((1-(4-chloro-8-(5-methylpyridin-3-yl)-1-oxo-2-phenyl-1,2-dihydroisoquinolin-3-yl)ethyl)amino)pyrido[2,3-d]pyrimidin-5(8H)-one]: in experiment [1], the inhibition at 0.01 µM amounted to 84% and the inhibition at 0.1 µM is 82%. Moreover, at DNA-PK(h), the inhibition at 0.01 µM worked out at 96% and the inhibition at 0.1 µM came to 101%.

Consider `C[C@H](Nc1ncnc2[nH]ccc(=O)c12)c1c(Cl)c2cccc(-c3ccc4c(c3)OCCN4)c2c(=O)n1-c1ccccc1` [Example 120, (S)-4-((1-(4-chloro-8-(3,4-dihydro-2H-benzo[b][1,4]oxazin-7-yl)-1-oxo-2-phenyl-1,2-dihydroisoquinolin-3-yl)ethyl)amino)pyrido[2,3-d]pyrimidin-5(8H)-one], for which the inhibition at 0.01 µM was determined as 65% in experiment [1] and 72% at DNA-PK(h). The results for the inhibition at 0.1 µM (in experiment [1]; at DNA-PK(h)) were 95% and 98%, respectively.

For `C[C@H](Nc1ncnc2[nH]ccc(=O)c12)c1c(Cl)c2cccc(-c3ccc4ncccc4c3)c2c(=O)n1-c1ccccc1` [Example 121, (S)-4-((1-(4-chloro-1-oxo-2-phenyl-8-(quinolin-6-yl)-1,2-dihydroisoquinolin-3-yl)ethyl)amino)pyrido[2,3-d]pyrimidin-5(8H)-one], in experiment [1], the inhibition at 0.01 µM worked out at 84% and the inhibition at 0.1 µM turned out to be 95%. For the same compound, on DNA-PK(h), the inhibition at 0.01 µM was 76% and the inhibition at 0.1 µM was found to be 98%.

For the compound `C[C@H](Nc1ncnc2[nH]ccc(=O)c12)c1c(Cl)c2cccc(-c3ccccc3F)c2c(=O)n1-c1ccccc1` [Example 122, (S)-4-((1-(4-chloro-8-(2-fluorophenyl)-1-oxo-2-phenyl-1,2-dihydroisoquinolin-3-yl)ethyl)amino)pyrido[2,3-d]pyrimidin-5(8H)-one], the inhibition at 0.01 µM stood at 68% in experiment [1] and 61% at DNA-PK(h). For the same compound, the inhibition at 0.1 µM in experiment [1] was 88%; at DNA-PK(h), 92%.

With `C[C@H](Nc1ncnc2[nH]ccc(=O)c12)c1c(Cl)c2cccc(-c3cccc(F)c3)c2c(=O)n1-c1ccccc1` [Example 123, (S)-4-((1-(4-chloro-8-(3-fluorophenyl)-1-oxo-2-phenyl-1,2-dihydroisoquinolin-3-yl)ethyl)amino)pyrido[2,3-d]pyrimidin-5(8H)-one], the values for the inhibition at 0.01 µM (in experiment [1]; on DNA-PK(h)) were 66% and 58%, respectively. Moreover, the inhibition at 0.1 µM in experiment [1] was found to be 94%; at DNA-PK(h) it was 93%.

`C[C@H](Nc1ncnc2[nH]ccc(=O)c12)c1c(Cl)c2cccc(-c3cc(F)cc(F)c3)c2c(=O)n1-c1ccccc1` [Example 124, (S)-4-((1-(4-chloro-8-(3,5-difluorophenyl)-1-oxo-2-phenyl-1,2-dihydroisoquinolin-3-yl)ethyl)amino)pyrido[2,3-d]pyrimidin-5(8H)-one]: in experiment [1], the inhibition at 0.01 µM turned out to be 83% and the inhibition at 0.1 µM came out at 99%. Further, on DNA-PK(h), the inhibition at 0.01 µM was determined as 44% and the inhibition at 0.1 µM was 86%.

As to `C[C@H](Nc1ncnc2[nH]ccc(=O)c12)c1c(Cl)c2cccc(-c3ccc4[nH]cnc4c3)c2c(=O)n1-c1ccccc1` [Example 125, (S)-4-((1-(8-(1H-benzo[d]imidazol-5-yl)-4-chloro-1-oxo-2-phenyl-1,2-dihydroisoquinolin-3-yl)ethyl)amino)pyrido[2,3-d]pyrimidin-5(8H)-one], the inhibition at 0.01 µM in experiment [1] was 68%; on DNA-PK(h), 79%. Further, the inhibition at 0.1 µM in experiment [1] stood at 95%; on DNA-PK(h), 97%.

With `Cc1cc(-c2cccc3c(Cl)c([C@H](C)Nc4ncnc5[nH]ccc(=O)c45)n(-c4ccccc4)c(=O)c23)cc(C)c1O` [Example 126, (S)-4-((1-(4-chloro-8-(4-hydroxy-3,5-dimethylphenyl)-1-oxo-2-phenyl-1,2-dihydroisoquinolin-3-yl)ethyl)amino)pyrido[2,3-d]pyrimidin-5(8H)-one], in experiment [1], the inhibition at 0.01 µM was 74% and the inhibition at 0.1 µM stood at 94%. Further, on DNA-PK(h), the inhibition at 0.01 µM came out at 70% and the inhibition at 0.1 µM turned out to be 96%.

Take `Cc1ccc(F)cc1-c1cccc2c(Cl)c([C@H](C)Nc3ncnc4[nH]ccc(=O)c34)n(-c3ccccc3)c(=O)c12` [Example 127, (S)-4-((1-(4-chloro-8-(5-fluoro-2-methylphenyl)-1-oxo-2-phenyl-1,2-dihydroisoquinolin-3-yl)ethyl)amino)pyrido[2,3-d]pyrimidin-5(8H)-one]: the inhibition at 0.01 µM in experiment [1] was determined as 89%; at DNA-PK(h), 38%. For the same compound, the figures for the inhibition at 0.1 µM (in experiment [1]; at DNA-PK(h)) were 92% and 81%, respectively.

`Cc1cc(-c2cccc3c(Cl)c([C@H](C)Nc4ncnc5[nH]ccc(=O)c45)n(-c4ccccc4)c(=O)c23)ccc1F` [Example 128, (S)-4-((1-(4-chloro-8-(4-fluoro-3-methylphenyl)-1-oxo-2-phenyl-1,2-dihydroisoquinolin-3-yl)ethyl)amino)pyrido[2,3-d]pyrimidin-5(8H)-one]: in experiment [1], the inhibition at 0.01 µM is 101% and the inhibition at 0.1 µM amounted to 105%. For the same compound, on DNA-PK(h), the inhibition at 0.01 µM was 59% and the inhibition at 0.1 µM is 97%.

Turning to `C[C@H](Nc1ncnc2[nH]ccc(=O)c12)c1c(Cl)c2cccc(-c3cccc(F)c3F)c2c(=O)n1-c1ccccc1` [Example 129, (S)-4-((1-(4-chloro-8-(2,3-difluorophenyl)-1-oxo-2-phenyl-1,2-dihydroisoquinolin-3-yl)ethyl)amino)pyrido[2,3-d]pyrimidin-5(8H)-one], in experiment [1], the inhibition at 0.01 µM amounted to 75% and the inhibition at 0.1 µM was determined as 67%. Moreover, at DNA-PK(h), the inhibition at 0.01 µM amounted to 56% and the inhibition at 0.1 µM worked out at 91%.

`C[C@H](Nc1ncnc2[nH]ccc(=O)c12)c1c(Cl)c2cccc(-c3ccc(C4CCN(C)CC4)cc3)c2c(=O)n1-c1ccccc1` [Example 130, (S)-4-((1-(4-chloro-8-(4-(1-methylpiperidin-4-yl)phenyl)-1-oxo-2-phenyl-1,2-dihydroisoquinolin-3-yl)ethyl)amino)pyrido[2,3-d]pyrimidin-5(8H)-one]: in experiment [1], the inhibition at 0.01 µM came to 85% and the inhibition at 0.1 µM stood at 89%. Further, on DNA-PK(h), the inhibition at 0.01 µM amounted to 98% and the inhibition at 0.1 µM is 102%.

Consider `Cc1cc(F)ccc1-c1cccc2c(Cl)c([C@H](C)Nc3ncnc4[nH]ccc(=O)c34)n(-c3ccccc3)c(=O)c12` [Example 131, (S)-4-((1-(4-chloro-8-(4-fluoro-2-methylphenyl)-1-oxo-2-phenyl-1,2-dihydroisoquinolin-3-yl)ethyl)amino)pyrido[2,3-d]pyrimidin-5(8H)-one], for which the inhibition at 0.01 µM is 81% in experiment [1] and 54% on DNA-PK(h). The values for the inhibition at 0.1 µM (in experiment [1]; on DNA-PK(h)) were 91% and 92%, respectively.

Regarding `C[C@H](Nc1ncnc2[nH]ccc(=O)c12)c1c(Cl)c2cccc(-c3cnc4c(c3)OCCO4)c2c(=O)n1-c1ccccc1` [Example 132, (S)-4-((1-(4-chloro-8-(2,3-dihydro-[1,4]dioxino[2,3-b]pyridin-7-yl)-1-oxo-2-phenyl-1,2-dihydroisoquinolin-3-yl)ethyl)amino)pyrido[2,3-d]pyrimidin-5(8H)-one], in experiment [1], the inhibition at 0.01 µM was 91% and the inhibition at 0.1 µM was 94%. Also, at DNA-PK(h), the inhibition at 0.01 µM amounted to 89% and the inhibition at 0.1 µM was 102%.

Consider `COc1ccc(-c2cccc3c(Cl)c([C@H](C)Nc4ncnc5[nH]ccc(=O)c45)n(-c4ccccc4)c(=O)c23)cn1` [Example 133, (S)-4-((1-(4-chloro-8-(6-methoxypyridin-3-yl)-1-oxo-2-phenyl-1,2-dihydroisoquinolin-3-yl)ethyl)amino)pyrido[2,3-d]pyrimidin-5(8H)-one], for which, in experiment [1], the inhibition at 0.01 µM came to 78% and the inhibition at 0.1 µM was 88%. At DNA-PK(h), the inhibition at 0.01 µM came to 79% and the inhibition at 0.1 µM was found to be 99%.

Regarding `C[C@H](Nc1ncnc2[nH]ccc(=O)c12)c1c(Cl)c2cccc(-c3ccncc3)c2c(=O)n1-c1ccccc1` [Example 134, (S)-4-((1-(4-chloro-1-oxo-2-phenyl-8-(pyridin-4-yl)-1,2-dihydroisoquinolin-3-yl)ethyl)amino)pyrido[2,3-d]pyrimidin-5(8H)-one], in experiment [1], the inhibition at 0.01 µM was 85% and the inhibition at 0.1 µM came out at 92%. For the same compound, at DNA-PK(h), the inhibition at 0.01 µM is 83% and the inhibition at 0.1 µM turned out to be 97%.

With `Cc1nc2cc(-c3cccc4c(Cl)c([C@H](C)Nc5ncnc6[nH]ccc(=O)c56)n(-c5ccccc5)c(=O)c34)ccc2[nH]1` [Example 135, (S)-4-((1-(4-chloro-8-(2-methyl-1H-benzo[d]imidazol-5-yl)-1-oxo-2-phenyl-1,2-dihydroisoquinolin-3-yl)ethyl)amino)pyrido[2,3-d]pyrimidin-5(8H)-one], in experiment [1], the inhibition at 0.01 µM turned out to be 78% and the inhibition at 0.1 µM is 97%. Further, on DNA-PK(h), the inhibition at 0.01 µM was found to be 85% and the inhibition at 0.1 µM is 100%.

Regarding `Cc1ncc(-c2cccc3c(Cl)c([C@H](C)Nc4ncnc5[nH]ccc(=O)c45)n(-c4ccccc4)c(=O)c23)cn1` [Example 136, (S)-4-((1-(4-chloro-8-(2-methylpyrimidin-5-yl)-1-oxo-2-phenyl-1,2-dihydroisoquinolin-3-yl)ethyl)amino)pyrido[2,3-d]pyrimidin-5(8H)-one], in experiment [1], the inhibition at 0.01 µM was found to be 83% and the inhibition at 0.1 µM was 93%. Also, on DNA-PK(h), the inhibition at 0.01 µM stood at 75% and the inhibition at 0.1 µM was 97%.

Values taken from patent publication US20230072683A1, “PYRIDO-PYRIMIDIN DERIVATIVES AND PHARMACEUTICAL COMPOSITION, FOR USE IN PREVENTING OR TREATING PI3 KINASE RELATED DISEASES, COMPRISING SAME AS ACTIVE INGREDIENT” (BORYUNG PHARMACEUTICAL CO., LTD, priority 2019, published 2023).
